# Patent US20240041042A1, “1-(PYRIDYL)-5-AZINYLPYRAZOLE DERIVATIVES, AND THEIR USE FOR CONTROL OF UNDESIRED PLANT GROWTH” (Bayer Aktiengesellschaft, priority 2020, published 2024)
# Where two headings read alike, the source gives them in different places.
# Legend:
# Assay type in all cases: in vivo
# Viola tricolor (VIOTR) [1] = experiment: Pre-emergence herbicidal action against VIOTR
# How it was run: (§1)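 Pre-emergence soil-surface spray, WP/EC formulation, 0.5% additive, 600 l/ha water, rates of 320 g/ha or lower. Greenhouse, ~3 wk. Visual score, % of untreated control (100% = plants dead, 0% = like control).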
# [2] = system: Verconica persica (VERPE); experiment: Pre-emergence herbicidal action against VERPE
# How it was run: as §1
# [3] = system: Pharbitis purpurea (PHBPU); experiment: Post-emergence herbicidal action against PHBPU
# How it was run: (§2)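 Greenhouse plants sprayed at the one-leaf stage, 2–3 weeks after sowing, with WP or EC formulations plus 0.5% additive at 600 l/ha water. Activity rated visually after about 3 weeks versus untreated controls (100% = dead, 0% = like control), at 320 g/ha or lower.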
# Zea mays (ZEAMX) [4] = details: pre-emergence, 80 g/ha, crop plant compatibility, in comparison to untreated controls
# How it was run: (§3)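 Crop injury rated visually in percent against untreated plants roughly 3 weeks after treatment (0% no effect, 100% plants dead). Compounds, as WP or EC with 0.5% additive in 600 l/ha water, were applied to the covering soil right after sowing; greenhouse growth. Suffixes a, b, c denote different dosages.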
# Oryza sativa (ORYSA) [5] = details: pre-emergence, 80 g/ha, crop plant compatibility, in comparison to untreated controls
# How it was run: as §3
# [6] = system: Triticum aestivum (TRZAS); details: crop plant compatibility, effect vs untreated controls
# How it was run: (§4)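 Greenhouse crops in sandy loam sprayed post-emergence at the one-leaf stage, 2–3 weeks after sowing, with WP or EC formulations in water plus 0.5% additive at 600 l/ha. Damage rated visually about 3 weeks later versus untreated controls (0% = like control, 100% = dead); suffixes a–c denote different doses.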
# Oryza sativa (ORYSA) [7] = details: crop plant compatibility
# How it was run: as §4
# [8] = system: Amaranthus retroflexus (AMARE); experiment: Pre-emergence herbicidal action against AMARE; details: visual scoring after about 3 weeks vs untreated controls
# How it was run: as §1
# [9] = system: Verconica persica (VERPE); experiment: Post-emergence herbicidal action against VERPE
# How it was run: as §2
# [10] = system: Pharbitis purpurea (PHBPU); experiment: Pre-emergence herbicidal action against PHBPU; details: dosage 320 g/ha
# How it was run: as §1
# [11] = system: Alopecurus myosuroides (ALOMY); experiment: Pre-emergence herbicidal action against ALOMY; details: scored visually after about 3 weeks, 100% = plants have died
# How it was run: as §1
# [12] = system: Abutilon theophrasti (ABUTH); experiment: Post-emergence herbicidal action against ABUTH; details: visual rating about 3 weeks after treatment vs untreated controls (100% = plants have died, 0% = like control plants)
# How it was run: as §2
# Lolium rigidum (LOLRI) [13] = experiment: Pre-emergence herbicidal action against LOLRI
# How it was run: as §1
# [14] = system: Amaranthus retroflexus (AMARE); experiment: Post-emergence herbicidal action against AMARE; details: 80 g/ha, visual rating about 3 weeks after treatment vs untreated controls (100% = plants have died, 0% = like control plants)
# How it was run: as §2
# Setaria viridis (SETVI) [15] = experiment: Pre-emergence herbicidal action against SETVI
# How it was run: as §1
# Avena fatua (AVEFA) [16] = experiment: Pre-emergence herbicidal action against AVEFA; details: 320 g/ha, visual scoring after about 3 weeks vs untreated controls
# How it was run: as §1
# Viola tricolor (VIOTR) [17] = experiment: Post-emergence herbicidal action against VIOTR
# How it was run: as §2
# Setaria viridis (SETVI) [18] = experiment: Post-emergence herbicidal action against SETVI; details: dosage 320 g/ha
# How it was run: as §2
# [19] = system: Echinochloa crus-galli (ECHCG); experiment: Pre-emergence herbicidal action against ECHCG; details: dosage 320 g/ha
# How it was run: as §1
# [20] = system: Alopecurus myosuroides (ALOMY); experiment: Post-emergence herbicidal action against ALOMY; details: visual rating about 3 weeks after treatment vs untreated controls (100% = plants have died, 0% = like control plants)
# How it was run: as §2
# Zea mays (ZEAMX) [21] = details: crop plant compatibility, 80 g/ha, effect vs untreated controls
# How it was run: as §4
# [22] = system: Echinochloa crus-galli (ECHCG); experiment: Post-emergence herbicidal action against ECHCG
# How it was run: as §2
# [23] = system: Polygonum convolvulus (POLCO); experiment: Pre-emergence herbicidal action against POLCO
# How it was run: as §1
# Avena fatua (AVEFA) [24] = experiment: Post-emergence herbicidal action against AVEFA; details: visual rating about 3 weeks after treatment
# How it was run: as §2
# [25] = system: Matricaria inodora (MATIN); experiment: Pre-emergence herbicidal action against MATIN; details: dosage 320 g/ha
# How it was run: as §1
# [26] = system: Matricaria inodora (MATIN); experiment: Post-emergence herbicidal action against MATIN; details: dosage 80 g/ha
# How it was run: as §2
# [27] = system: Digitaria sanguinalis (DIGSA); experiment: Pre-emergence herbicidal action against DIGSA
# How it was run: as §1
# Lolium rigidum (LOLRI) [28] = experiment: Post-emergence herbicidal action against LOLRI; details: dosage 80 g/ha
# How it was run: as §2
# [29] = system: Polygonum convolvulus (POLCO); experiment: Post-emergence herbicidal action against POLCO; details: dosage 80 g/ha
# How it was run: as §2
# [30] = 20 g/ha, effect vs untreated controls
# [31] = 80 g/ha, effect in comparison to untreated controls
SMILES,"Pre-emergence action against VIOTR in % (Viola tricolor (VIOTR) [1]; 320 g/ha, Viola tricolor)",Pre-emergence action against VERPE in % ([2]; dosage 320 g/ha),Post-emergence action against PHBPU in % ([3]; dosage 80 g/ha),Pre-emergence action against ZEAMX in % (Zea mays (ZEAMX) [4]),Pre-emergence action against ORYSA in % (Oryza sativa (ORYSA) [5]),Post-emergence action against ORYSA in % (Oryza sativa (ORYSA) [7]; [30]),Post-emergence action against ORYSA in % (Oryza sativa (ORYSA) [7]; [31]),Pre-emergence action against AMARE in % ([8]; 80 g/ha),Pre-emergence action against AMARE in % ([8]; 320 g/ha),Post-emergence action against VERPE in % ([9]; dosage 80 g/ha),Pre-emergence action against ALOMY ([11]; 320 g/ha),Post-emergence action against ABUTH in % ([12]; 80 g/ha),Pre-emergence action against LOLRI in % (Lolium rigidum (LOLRI) [13]; dosage 320 g/ha),Post-emergence action against AMARE in % [14],Pre-emergence action against SETVI in % (Setaria viridis (SETVI) [15]; dosage 320 g/ha),Pre-emergence action against AVEFA in % (Avena fatua (AVEFA) [16]),Pre-emergence action against VIOTR in % (Viola tricolor (VIOTR) [1]; dosage 80 g/ha),Post-emergence action against VIOTR in % (Viola tricolor (VIOTR) [17]; 80 g/ha),Pre-emergence action against ECHCG in % [19],Post-emergence action against ECHCG in % ([22]; dosage 80 g/ha),further results
O=C(O)COc1nn(-c2ccccn2)c(-c2ccc(F)nc2)c1I [Example I-103],90%,90%,80%,0%,0%,0%,0%,80%,90%,80%,100%,80%,100%,80%,90%,80%,,,,,Post-emergence action against TRZAS in % ([6]; 20 g/ha): 0%; Pre-emergence action against PHBPU in % [10]: 80%
CCOC(=O)COc1nn(-c2ncccc2C(F)(F)F)c(-c2cncc(F)c2)c1I [Example I-225],100%,90%,80%,10%,20%,,10%,,100%,80%,90%,,,,80%,90%,90%,80%,80%,80%,"Post-emergence action against VIOTR in % (Viola tricolor (VIOTR) [17]; 320 g/ha): 80%; Post-emergence action against SETVI in % (Setaria viridis (SETVI) [18]): 80%; Pre-emergence action against VERPE in % ([2]; dosage 80 g/ha): 80%; Post-emergence action against PHBPU in % ([3]; dosage 320 g/ha): 80%; Post-emergence action against ALOMY in % ([20]; 320 g/ha): 90%; Post-emergence action against ZEAMX in % (Zea mays (ZEAMX) [21]): 20%; Post-emergence action against TRZAS in % ([6]; 80 g/ha): 20%; Post-emergence action against ECHCG in % ([22]; dosage 320 g/ha): 90%; Pre-emergence action against POLCO in % ([23]; dosage 320 g/ha): 90%; Post-emergence action against VERPE in % ([9]; 320 g/ha, VERPE): 90%; Pre-emergence action against ALOMY ([11]; 80 g/ha): 80%; Post-emergence action against ABUTH in % ([12]; 320 g/ha): 80%; Post-emergence action against AVEFA in % (Avena fatua (AVEFA) [24]; 320 g/ha): 80%; Pre-emergence action against MATIN in % [25]: 80%"
COC(=O)[C@@H](C)NC(=O)COc1nn(-c2ccccn2)c(-c2ccnc(F)c2)c1Br [Example I-59],90%,90%,80%,,20%,0%,0%,100%,100%,90%,100%,80%,100%,90%,100%,80%,90%,80%,100%,80%,"Post-emergence action against MATIN in % [26]: 80%; Pre-emergence action against DIGSA in % ([27]; 80 g/ha, visual scoring after about 3 weeks vs untreated controls): 100%; Pre-emergence action against DIGSA in % ([27]; dosage 320 g/ha): 100%; Post-emergence action against ALOMY in % ([20]; 80 g/ha): 90%; Pre-emergence action against POLCO in % ([23]; dosage 80 g/ha): 80%; Pre-emergence action against POLCO in % ([23]; dosage 320 g/ha): 90%; Pre-emergence action against ALOMY ([11]; 80 g/ha): 80%; Pre-emergence action against LOLRI in % (Lolium rigidum (LOLRI) [13]; dosage 80 g/ha): 80%; Pre-emergence action against SETVI in % (Setaria viridis (SETVI) [15]; dosage 80 g/ha): 90%; Post-emergence action against LOLRI in % (Lolium rigidum (LOLRI) [28]): 80%; Post-emergence action against POLCO in % [29]: 80%; Post-emergence action against AVEFA in % (Avena fatua (AVEFA) [24]; 80 g/ha): 80%"
